The results in this text go back to US6716833B2, “Acetylenic α-amino acid-based sulfonamide hydroxamic acid tace inhibitors” (priority 1999, dated 2004).

One assay concerns the target MMP-13 (Homo sapiens, UniProt P45452). The assay can be described thus: MMP-13 inhibition (thiopeptide or fluorescent peptide substrate). The assay is classed as biochemical. As to conditions: read-out: MMP-13 IC50.
Experimental: The enzyme activity is measured by the rate of the color increase. The thiopeptide substrate is made up fresh as a 20 mM stock in 100% DMSO and the DTNB is dissolved in 100% DMSO as a 100 mM stock and stored in the dark at room temperature. Both the substrate and DTNB are diluted together to 1 mM with substrate buffer (50 mM HEPES pH 7.5, 5 mM CaCl2) before use. The stock of enzyme is diluted with buffer (50 mM HEPES, pH 7.5, 5 mM CaCl2, 0.02% Brij) to the desired final concentration.
Alternatively, a fluorescent peptide substrate is used. In this test procedure, the peptide substrate contains a fluorescent group and a quenching group. Upon cleavage of the substrate by an MMP, the fluorescence that is generated is quantitated on the fluorescence plate reader. The assay is run in HCBC assay buffer (50 mM HEPES, pH 7.0, 5 mM Ca^+2, 0.02% Brij, 0.5% Cysteine), with human recombinant MMP-1, MMP-9, or MMP-13. […] For the assay, substrate and enzymes are diluted in HCBC buffer to the desired concentrations. Compounds are added to the 96 well plate containing enzyme and the reaction is started by the addition of substrate.
For either the thiopeptide or fluorescent peptide test procedures, the slope of the line is calculated and represents the reaction rate. The linearity of the reaction rate is confirmed (r^2>0.85). The mean (x±sem) of the control rate is calculated and compared for statistical significance (p<0.05) with drug-treated rates using Dunnett's multiple comparison test.
On to `CC#CCOc1ccc(S(=O)(=O)N(C)C(CSCc2cccnc2)C(=O)NO)cc1` (stereo not drawn) [Example 155, 2-[(4-but-2-ynyloxy-Benenesulfonyl)-methyl-amino]-N-hydroxy-3-(pyridin-3-ylmethylsulfanyl)-butyramide], for which the IC50 was 4.8 nM.

For another assay, the target named is TNF-α converting enzyme (TACE) (Homo sapiens, UniProt P78536). The assay can be described thus: TACE inhibition (fluorescent peptidyl substrate). The class given is biochemical. Particulars: IC 50 nM (In Vitro Inhibition of TACE), Table 15.
Sequence of TNF-α converting enzyme (TACE) (P78536 215-824, species assumed): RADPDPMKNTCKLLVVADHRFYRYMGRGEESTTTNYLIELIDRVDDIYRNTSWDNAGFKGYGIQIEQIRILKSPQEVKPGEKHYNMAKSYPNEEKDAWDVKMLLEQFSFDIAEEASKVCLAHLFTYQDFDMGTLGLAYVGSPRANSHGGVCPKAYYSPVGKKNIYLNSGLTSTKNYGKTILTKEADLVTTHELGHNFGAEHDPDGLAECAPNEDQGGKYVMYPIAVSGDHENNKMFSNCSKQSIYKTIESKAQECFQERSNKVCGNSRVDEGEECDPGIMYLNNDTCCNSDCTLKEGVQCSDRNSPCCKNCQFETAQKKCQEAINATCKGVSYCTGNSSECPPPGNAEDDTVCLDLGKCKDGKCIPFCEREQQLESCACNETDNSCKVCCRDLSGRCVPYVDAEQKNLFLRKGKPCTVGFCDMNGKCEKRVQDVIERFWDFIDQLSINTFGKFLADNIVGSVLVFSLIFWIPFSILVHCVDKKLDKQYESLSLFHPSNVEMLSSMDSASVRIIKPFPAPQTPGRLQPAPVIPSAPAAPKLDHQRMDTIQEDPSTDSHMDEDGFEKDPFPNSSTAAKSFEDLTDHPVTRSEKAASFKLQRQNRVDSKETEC
In turn, `CC#CCOc1ccc(S(=O)(=O)N[C@H](CCCNC(=O)c2ccsc2)C(=O)NO)cc1` [Example 347, N-[(4R)-4-({[4-(But-2-ynyloxy)phenyl]sulfonyl}amino)-5-(hydroxyamino)-5-oxopentyl]thiophene-3-carboxamide] had an IC50 of 3.15 nM.

The compound `CC#CCOc1ccc(S(=O)(=O)N[C@H](CCCNC(=O)/C=C/c2ccccc2)C(=O)NO)cc1` [Example 348, (E)-N-[(4R)-4-({[4-(But-2-ynyloxy)phenyl]sulfonyl}amino)-5-(hydroxyamino)-5-oxopentyl]-3-phenylprop-2-enamide] yielded an IC50 of 6.25 nM. Compound `CC#CCOc1ccc(S(=O)(=O)N[C@H](CCCCNC(=O)c2ccc3[nH]cnc3c2)C(=O)NO)cc1` [Example 349, N-[(5R)-5-({[4-(But-2-ynyloxy)phenyl]sulfunyl}amino)-6-(hydroxyamino)-6-oxohexyl]-1H-benzimidazole-5-carboxamide] had an IC50 of 9.41 nM.

As for `CC#CCOc1ccc(S(=O)(=O)N[C@H](CCCCNC(=O)c2ccccc2)C(=O)NO)cc1` [Example 350, N-[(5R)-5-({[4-(But-2-ynyloxy)phenyl]sulfonyl}amino)-6-(hydroxyamino)-6-oxohexyl]benzamide], the IC50 is 6.28 nM. The same measure, in the same setting: with `CC#CCOc1ccc(S(=O)(=O)N[C@H](CCCCNC(=O)c2ccc(Br)cc2)C(=O)NO)cc1` [Example 351, 4-Bromo-N-[(5R)-5-({[4-(but-2-ynyloxy)phenyl]sulfonyl}amino)-6-(hydroxyamino)-6-oxohexyl]benzamide] the figure was 9.57 nM.

The compound `CC#CCOc1ccc(S(=O)(=O)N[C@H](CCCCNC(=O)c2sccc2Cl)C(=O)NO)cc1` [Example 352, N-[(5R)-5-({[4-(But-2-ynyloxy)phenyl]sulfonyl}amino)-6-(hydroxyamino)-6-oxohexyl]-3-chlorothiophene-2-carboxamide] registered an IC50 of 4.96 nM. Compound `CC#CCOc1ccc(S(=O)(=O)N[C@H](CCCCNC(=O)c2ccc(Cl)cc2)C(=O)NO)cc1` [Example 353, N-[(5R)-5-({[4-(But-2-ynyloxy)phenyl]sulfonyl}amino)-6-(hydroxyamino)-6-oxohexyl]-4-chlorobenzamide] gave an IC50 of 6.1 nM.

For `CC#CCOc1ccc(S(=O)(=O)N[C@H](CCCCNC(=O)C2CCCCC2)C(=O)NO)cc1` [Example 354, N-[(5R)-5-({[4-(But-2-ynyloxy)phenyl]sulfonyl}amino)-6-(hydroxyamino)-6-oxohexyl]cyclohexanecarboxamide], the IC50 was found to be 5.89 nM. Compound `CC#CCOc1ccc(S(=O)(=O)N[C@H](CCCCNC(=O)Cc2ccc(Cl)c(Cl)c2)C(=O)NO)cc1` [Example 355, (2R)-2-({[4-(But-2-ynyloxy)phenyl]sulfonyl}amino)-6-{[2-(3,4-dichlorophenyl)acetyl]amino}-N-hydroxyhexanamide] yielded an IC50 of 12.4 nM.

As to `CC#CCOc1ccc(S(=O)(=O)N[C@H](CCCCNC(=O)c2cc(C)oc2C)C(=O)NO)cc1` [Example 356, N-[(5R)-5-({[4-(But-2-ynyloxy)phenyl]sulfonyl}amino)-6-(hydroxyamino)-6-oxohexyl]-2,5-dimethyl-3-furamide], the IC50 amounted to 9.36 nM.

In turn, `CC#CCOc1ccc(S(=O)(=O)N[C@H](CCCCNC(=O)c2c(C)noc2C)C(=O)NO)cc1` [Example 357, N-[(5R)-5-({[4-(But-2-ynyloxy)phenyl]sulfonyl}amino)-6-(hydroxyamino)-6-oxohexyl]-3,5-dimethylisoxazole-4-carboxamide] gave an IC50 of 14.1 nM.

Turning to `CC#CCOc1ccc(S(=O)(=O)N[C@H](CCCCNC(=O)CCc2ccccc2)C(=O)NO)cc1` [Example 358, (2R)-2-({[4-(But-2-ynyloxy)phenyl]sulfonyl}amino)-N-hydroxy-6-[(3-phenylpropanoyl)amino]hexanamide], the IC50 was determined as 8.84 nM. `CC#CCOc1ccc(S(=O)(=O)N[C@H](CCCCNC(=O)c2ccncc2)C(=O)NO)cc1` [Example 359, N-[(5R)-5-({[4-(But-2-ynyloxy)phenyl]sulfonyl}amino)-6-(hydroxyamino)-6-oxohexyl]isonicotinamide] showed an IC50 of 9.28 nM. On the same count and under the same terms, the same measure for `CC#CCOc1ccc(S(=O)(=O)N[C@H](CCCCNC(=O)c2ccccc2OC)C(=O)NO)cc1` [Example 360, N-[(5R)-5-({[4-(But-2-ynyloxy)phenyl]sulfonyl}amino)-6-(hydroxyamino)-6-oxohexyl]-2-methoxybenzamide]: 4.97 nM; for `CC#CCOc1ccc(S(=O)(=O)N[C@H](CCCCNC(=O)c2ccc(OC)cc2)C(=O)NO)cc1` [Example 361, N-[(5R)-5-({[4-(But-2-ynyloxy)phenyl]sulfonyl}amino)-6-(hydroxyamino)-6-oxohexyl]-4-methoxybenzamide]: 6.32 nM. In turn, `CC#CCOc1ccc(S(=O)(=O)N[C@H](CCCCNC(=O)Cc2ccc([N+](=O)[O-])cc2)C(=O)NO)cc1` [Example 362, (2R)-2-({[4-(But-2-ynyloxy)phenyl]sulfonyl}amino)-N-hydroxy-6-{[2-(4-nitrophenyl)acetyl]amino}hexanamide] showed an IC50 of 4.55 nM.

`CC#CCOc1ccc(S(=O)(=O)N[C@H](CCCCNC(=O)Cc2ccccc2)C(=O)NO)cc1` [Example 363, (2R)-2-({[4-(But-2-ynyloxy)phenyl]sulfonyl}amino)-N-hydroxy-6-[(2-phenylacetyl)amino]hexanamide] showed an IC50 of 3.39 nM. The same measure, in the same setting: with `CC#CCOc1ccc(S(=O)(=O)N[C@H](CCCCNC(=O)c2cnc3ccccc3c2)C(=O)NO)cc1` [Example 364, N-[(5R)-5-({[4-(But-2-ynyloxy)phenyl]sulfonyl}amino)-6-(hydroxyamino)-6-oxohexyl]quinoline-3-carboxamide] the figure was 7.79 nM; with `CC#CCOc1ccc(S(=O)(=O)N[C@H](CCCCNC(=O)c2ccsc2)C(=O)NO)cc1` [Example 365, N-[(5R)-5-({[4-(But-2-ynyloxy)phenyl]sulfonyl}amino)-6-(hydroxyamino)-6-oxohexyl]thiophene-3-carboxamide], 14.6 nM; with `CC#CCOc1ccc(S(=O)(=O)N[C@H](CCCCNC(=O)/C=C/c2ccccc2)C(=O)NO)cc1` [Example 366, (E)-N-[(5R)-5-({[4-(But-2-ynyloxy)phenyl]sulfonyl}amino)-6-(hydroxyamino)-6-oxohexyl]-3-phenylprop-2-enamide], 106 nM. In the case of `CC#CCOc1ccc(S(=O)(=O)N[C@H](CCCNC(=O)c2cccs2)C(=O)NO)cc1` [Example 368, (4R)-4-({[4-(but-2-ynyloxy)Phenyl]sulfonyl}amino)-5-(hydroxyamino)-5-oxopentylithiophene-2-carboxamide], the IC50 was 151 nM. Take `CC#CCOc1ccc(S(=O)(=O)N[C@H](CCCNC(=O)NCC)C(=O)NO)cc1` [Example 369]: the IC50 worked out at 14.2 nM. `CC#CCOc1ccc(S(=O)(=O)N[C@H](CCCNC(=O)Nc2ccccc2)C(=O)NO)cc1` [Example 370, (2R)-5-[(Anilinocarbonyl)amino]-2-({[4-(but-2-ynyloxy)phenyl]sulfonyl}amino)-N-hydroxypentanamide] had an IC50 of 2.4 nM.

Consider `CC#CCOc1ccc(S(=O)(=O)N[C@H](CCCNC(=O)OCCCCCCCC)C(=O)NO)cc1` [Example 371, Octyl(4R)-4-({[4-(but-2-ynyloxy)phenyl]sulfonyl}amino)-5-(hydroxyamino)-5-oxopentylcarbamate], for which the IC50 turned out to be 377 nM. `CC#CCOc1ccc(S(=O)(=O)N[C@H](CCCNC(=O)N(CC)CC)C(=O)NO)cc1` [Example 373] yielded an IC50 of 16.9 nM. `CC#CCOc1ccc(S(=O)(=O)N[C@H](CCCNC(=O)N(C)c2ccccc2)C(=O)NO)cc1` [Example 374, (2R)-2-({[4-(but-2-ynyloxy)Phenyl]sulfonyl}amino)-N-hydroxy-5-{[(methylanilino)carbonyl]amino}pentanamide] registered an IC50 of 18.2 nM. Take `CC#CCOc1ccc(S(=O)(=O)N[C@H](CCCNS(=O)(=O)c2cn(C)cn2)C(=O)NO)cc1` [Example 375, (2R)-2-({[4-(but-2-ynyloxy)Phenyl]sulfonyl}amino)-N-hydroxy-5-{[(1-methyl-1H-imidazol-4-yl)sulfonyl]amino}pentanamide]: the IC50 amounted to 24.6 nM. Turning to `CC#CCOc1ccc(S(=O)(=O)N[C@H](CCCNC(=O)CN2CCOCC2)C(=O)NO)cc1` [Example 376, (2R)-2-({[4-(but-2-ynyloxy)Phenyl]sulfonyl}amino)-N-hydroxy-5-[(2-morpholin-4-ylacetyl)amino]pentanamide], the IC50 was 21.9 nM. In turn, `CC#CCOc1ccc(S(=O)(=O)N[C@H](CCCNC(=O)CN2CCN(C)CC2)C(=O)NO)cc1` [Example 377, (2R)-2-({[4-(but-2-ynyloxy)Phenyl]sulfonyl}amino)-N-hydroxy-5-{[2-(4-methylpiperazin-1-yl)acetyl]amino}pentanamide] registered an IC50 of 26.5 nM. `CC#CCOc1ccc(S(=O)(=O)N[C@H](CCCNC(=O)CNCc2ccccc2)C(=O)NO)cc1` [Example 378, (2R)-5-{[2-(Benzylamino)acetyl]amino}-2-({[4-(but-2-ynyloxy)phenyl]sulfonyl}amino)-N-hydroxypentanamide] showed an IC50 of 22.8 nM.

Staying with this assay, now noted: read-out: IC 50 nM (In Vitro Inhibition of TACE); Table 15.
As to `CC#CCOc1ccc(S(=O)(=O)N[C@H](CCCNC(=O)Oc2ccc(OC)cc2)C(=O)NO)cc1` [Example 372, 4-Methoxyphenyl(4R)-4-({[4-(but-2-ynyloxy)phenyl]sulfonyl}amino)-5-(hydroxyamino)-5-oxopentylcarbamate], the IC50 was found to be 8.4 nM. On to “(2R)-2-({[4-(But-2-ynyloxy)phenyl]sulfonyl}amino)-5-{[2-(3,4-dichlorophenyl)acetyl]amino}-N-hydroxypentanamide [Example 336]”, for which the IC50 was 6.11 nM.
